Laboratory results taken from patent US12344614B2, “Benzodiazepine derivatives as GABA a GAMMA1 PAM” (Hoffmann-La Roche Inc., priority 2021, dated 2025).
Read-outs that look alike come from different tables or passages of the source.

What was measured:
[1] = biological target: human GABAA α1β2γ1 receptor (Homo sapiens (Human), UniProt P14867+Q8N1C3); assay: Radioligand binding assay, competition for [3H]RO7239181, membranes from HEK293F cells
h-GABA-A α2β2γ1 receptor = h-GABA-A α2β2γ1 receptor (Homo sapiens (Human), UniProt P47869+Q8N1C3); assay: Two-electrode voltage clamp electrophysiology in Xenopus oocytes expressing GABAA receptors; format: cell-based; conditions: for Efficacy (GABA) %: % modulation of GABA EC20 = 100*(Fold increase−1), compound at 30-fold Ki α2β2γ1; for Fold increase h-GABA-A α2β2γ1 oocyte @ 30-fold Ki: Xenopus oocytes, GABA EC20, test compound at approx. 30-fold its Ki α2β2γ1
Procedure: Xenopus laevis oocytes at maturation stages V-VI were used for the expression of cloned mRNA encoding GABAA receptor subunits. Oocytes ready for RNA micro-injection were bought from Ecocyte, Castrop-Rauxel, Germany and stored in modified Barth's medium (composition in mM: NaCl 88, KCl 1, NaHCO3 2.4, HEPES 10, MgSO4 0.82, CaNO3 0.33, CaCl2 0.33, pH=7.5) at 20° C. until the experiment.
Oocytes were plated in 96-well plates for microinjection using the Roboinject automated instrument (MultiChannelSystems, Reutlingen, Germany). Approximately 50 nL of an aqueous solution containing the RNA transcripts for the subunits of the desired GABAA receptor subtype was injected into each oocyte. […] Oocytes were kept in modified Barth's medium (composition in mM: NaCl 88, KCl 1, NaHCO3 4, HEPES 10, MgSO4 0.82, CaNO3 0.33, CaCl, 0.33, pH=7.5) at 20° C. until the experiment.
Electrophysiological experiments were performed using the Roboocyte instrument (MultiChannelSystems, Reutlingen, Germany) on days 3 to 5 after the micro-injection of mRNA. During the experiment the oocytes were constantly superfused by a solution containing (in mM) NaCl 90, KCl 1, HEPES 5, MgCl2 1, CaCl2 1 (pH 7.4). Oocytes were impaled by two glass microelectrodes (resistance: 0.5-0.8 MΩ) which were filled with a solution containing KCl 1M+K-acetate 1.5 M and voltage-clamped to −80 mV. The recordings were performed at room temperature using the Roboocyte two-electrode voltage clamp system (Multichannelsystem). After an initial equilibration period of 1.5 min GABA was added for 1.5 min at a concentration evoking approximately 20% of a maximal current response (EC2O). After another rest interval of 2.5 min GABA was again added evoking a response of similar amplitude and shape. […] Current traces were recorded at a digitization rate of 10 Hz during and shortly before and after the GABA application.
Each compound and concentration was tested on at least 3 oocytes. Different oocytes were used for different compound concentrations.
For the analysis, the digitized current traces of the first and second GABA response were superimposed and, if necessary, rescaled to equal maximal amplitudes. The ratio between the two responses during the time interval of test compound application was calculated point by point. The extremum of the resulting “ratio trace” was taken as the efficacy (“Fold increase”) of the compound expressed as “% modulation of GABA EC20” (100*(Fold increase−1)).

| Compound | Ki [1] | Efficacy (GABA) % (h-GABA-A α2β2γ1 receptor) | Fold increase h-GABA-A α2β2γ1 oocyte @ 30-fold Ki (h-GABA-A α2β2γ1 receptor) | Ki ([1]; read-out: Ki h-GABAA α1β2γ1, [3H]RO7239181 20-30 nM, HEK293F membranes, 1 hour at 4° C., mean of two determinations) |
| --- | --- | --- | --- | --- |
| Cc1nnc2n1-c1ccc(C(F)(F)F)c(Cl)c1C(c1nc(O)ccc1Cl)=N[C@H]2C [Example 22, 5-chloro-6-[(4S)-7-chloro-1,4-dimethyl-8-(trifluoromethyl)-4H-[1,2,4]triazolo[4,3-a][1,4]benzodiazepin-6-yl]pyridin-2-ol] | 42.5 nM | 84% | 1.84 | – |
| O=c1ccn2c(n1)CN=C(c1cc(O)ccc1F)c1c-2ccc(C(F)(F)F)c1Cl [Example 11, 8-chloro-7-(2-fluoro-5-hydroxy-phenyl)-9-(trifluoromethyl)-5H-pyrimido[1,2-a][1,4]benzodiazepin-3-one] | 5.17 nM | 68% | 1.68 | – |
| Cc1ccc2c(c1Cl)C(c1cc(O)ccc1F)=NCC(=O)N2C [Example 2, 6-chloro-5-(2-fluoro-5-hydroxy-phenyl)-1,7-dimethyl-3H-1,4-benzodiazepin-2-one] | 3.49 nM | 70% | 1.70 | – |
| Cc1cn2c(n1)[C@H](C)N=C(c1nc(O)ccc1F)c1c-2ccc(C(F)(F)F)c1Cl [Example 28, 6-[(4S)-7-chloro-2,4-dimethyl-8-(trifluoromethyl)-4H-imidazo[1,2-a][1,4]benzodiazepin-6-yl]-5-fluoro-pyridin-2-ol] | 19.9 nM | 68% | 1.68 | – |
| CN1C(=O)CN=C(c2cc(O)ccc2F)c2c1ccc(Cl)c2Cl [Example 1, 6,7-dichloro-5-(2-fluoro-5-hydroxy-phenyl)-1-methyl-3H-1,4-benzodiazepin-2-one] | 2.9 nM | 90% | 1.90 | 2.9 nM |
